# Experimental data: ChEMBL document CHEMBL4813941, “Secondary Metabolites from the Leather Coral-Derived Fungal Strain Xylaria sp. FM1005 and Their Glycoprotein IIb/IIIa Inhibitory Activity” (J Nat Prod, 2021)
# Values joined by “and” are separate entries in the source; they are usually repeats but may differ in a detail not shown here. Equal entries are not always repeated. Active and inactive are the calls of the source. The rule behind the calls is not given here.
# Molecular target: T1, Integrin subunit alpha 2b/beta-3 (Rattus norvegicus, UniProt D3ZAC0+Q8R2H2)
# T1 sequence (D3ZAC0 whole entry): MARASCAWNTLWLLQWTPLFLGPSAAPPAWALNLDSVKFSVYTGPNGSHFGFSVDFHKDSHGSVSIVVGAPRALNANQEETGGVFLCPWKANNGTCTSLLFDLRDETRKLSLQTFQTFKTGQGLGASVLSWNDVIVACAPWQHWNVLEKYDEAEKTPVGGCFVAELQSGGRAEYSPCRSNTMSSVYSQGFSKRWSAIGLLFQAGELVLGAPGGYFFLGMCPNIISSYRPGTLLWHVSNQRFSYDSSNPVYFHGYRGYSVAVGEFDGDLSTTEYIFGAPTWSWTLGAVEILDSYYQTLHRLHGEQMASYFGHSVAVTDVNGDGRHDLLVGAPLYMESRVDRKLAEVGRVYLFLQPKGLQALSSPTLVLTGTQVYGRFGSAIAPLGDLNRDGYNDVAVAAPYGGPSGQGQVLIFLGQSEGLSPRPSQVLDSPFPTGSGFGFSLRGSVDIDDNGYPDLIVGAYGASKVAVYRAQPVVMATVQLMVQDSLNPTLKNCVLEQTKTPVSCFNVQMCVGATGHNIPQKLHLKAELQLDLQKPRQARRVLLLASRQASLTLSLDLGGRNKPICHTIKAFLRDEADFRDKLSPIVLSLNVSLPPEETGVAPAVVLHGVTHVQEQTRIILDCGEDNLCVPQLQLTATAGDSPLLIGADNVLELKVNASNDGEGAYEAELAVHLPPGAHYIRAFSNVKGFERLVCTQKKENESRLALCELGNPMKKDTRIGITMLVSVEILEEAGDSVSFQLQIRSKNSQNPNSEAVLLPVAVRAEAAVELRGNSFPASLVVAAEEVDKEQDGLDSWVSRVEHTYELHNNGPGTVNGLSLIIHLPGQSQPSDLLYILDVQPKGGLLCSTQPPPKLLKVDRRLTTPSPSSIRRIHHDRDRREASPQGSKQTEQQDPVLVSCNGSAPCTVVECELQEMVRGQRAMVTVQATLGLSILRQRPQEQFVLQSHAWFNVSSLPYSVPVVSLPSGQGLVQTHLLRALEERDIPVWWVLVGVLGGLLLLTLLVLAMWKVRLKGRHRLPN
# T1 sequence (Q8R2H2 whole entry): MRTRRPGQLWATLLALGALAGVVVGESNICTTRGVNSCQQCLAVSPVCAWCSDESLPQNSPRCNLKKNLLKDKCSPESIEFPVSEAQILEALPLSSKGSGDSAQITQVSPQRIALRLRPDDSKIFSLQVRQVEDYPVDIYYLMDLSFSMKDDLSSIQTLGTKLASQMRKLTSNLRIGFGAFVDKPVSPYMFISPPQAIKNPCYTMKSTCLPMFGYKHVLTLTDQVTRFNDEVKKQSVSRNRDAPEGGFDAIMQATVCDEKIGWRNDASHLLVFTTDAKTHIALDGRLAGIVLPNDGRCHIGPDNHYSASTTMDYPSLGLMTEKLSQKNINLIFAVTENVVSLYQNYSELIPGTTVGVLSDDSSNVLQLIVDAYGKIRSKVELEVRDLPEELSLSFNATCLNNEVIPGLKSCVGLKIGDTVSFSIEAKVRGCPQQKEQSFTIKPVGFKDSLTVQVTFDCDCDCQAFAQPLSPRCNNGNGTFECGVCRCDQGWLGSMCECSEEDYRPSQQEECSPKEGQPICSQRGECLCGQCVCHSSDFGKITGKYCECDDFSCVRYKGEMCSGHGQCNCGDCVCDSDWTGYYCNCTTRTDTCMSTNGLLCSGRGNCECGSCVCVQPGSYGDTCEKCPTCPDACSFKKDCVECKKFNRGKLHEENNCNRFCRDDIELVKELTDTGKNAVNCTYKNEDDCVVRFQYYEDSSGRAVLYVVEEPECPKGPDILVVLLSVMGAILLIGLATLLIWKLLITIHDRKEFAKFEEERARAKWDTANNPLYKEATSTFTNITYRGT
# Experiment: (§1) Inhibition of fibrinogen binding to rat platelet integrin alpha2b beta3 by ELISA based solid phase binding assay
# Type: cell-based
# Details: not given
row,IC50,Compound
1,610 nM and 603 nM,CC#CCOc1ccc(C[C@H](NC(=O)CCCCC)C(=O)O)cc1
2,130 nM and 136 nM,CCCCS(=O)(=O)N[C@@H](Cc1ccc(OCCCCC2CCNCC2)cc1)C(=O)O [TIROFIBAN]
3,890 nM and 897 nM,CC#CCOc1ccc(C[C@H](NC(=O)CCCCC)C(=O)OC)cc1

# Molecular target: T2, Integrin subunit alpha 2b/beta-3 (Rattus norvegicus) (UniProt D3ZAC0+Q8R2H2)
# Experiment: as §1
# Type: cell-based
# Details: not given
row,inhibition,Compound
1,Dose-Dependent Effect,CC#CCOc1ccc(C[C@H](NC(=O)CCCCC)C(=O)O)cc1
2,Dose-Dependent Effect,CC#CCOc1ccc(C[C@H](NC(=O)CCCCC)C(=O)OC)cc1

# Molecular target: T2, Integrin subunit alpha 2b/beta-3 (Rattus norvegicus)
# Experiment: Inhibition of fibrinogen binding to rat platelet integrin alpha2b beta3 at 1 ug/ml by ELISA based solid phase binding assay
# Type: cell-based
# Details: dose 1.0 µg/ml
row,inhibition,Compound
1,inactive,CCCCCC(=O)N[C@@H](Cc1ccc(OCC#CCO)cc1)C(=O)O
2,inactive,C/C(=C/COc1ccc(CC(=O)O)cc1)C(=O)O
3,inactive,CC#CCOc1ccc(C[C@H](NC(=O)CCCC)C(=O)O)cc1
4,inactive,CC#CCOc1ccc(C[C@H](NC(=O)CCC)C(=O)O)cc1

# System: Bacillus subtilis
# Experiment: Antibacterial activity against Bacillus subtilis at 80 ug/ml incubated for 24 hrs by resazurin dye based broth microdilution method
# Type: functional, organism-based
# Details: dose 80.0 µg/ml
row,Compound,Activity
1,CCCCCC(=O)N[C@@H](Cc1ccc(OCC#CCO)cc1)C(=O)O,inactive
2,CC#CCOc1ccc(C[C@H](NC(=O)CCCCC)C(=O)O)cc1,inactive
3,C/C(=C/COc1ccc(CC(=O)O)cc1)C(=O)O,inactive
4,CC#CCOc1ccc(C[C@H](NC(=O)CCCC)C(=O)O)cc1,inactive
5,CC#CCOc1ccc(C[C@H](NC(=O)CCCCC)C(=O)OC)cc1,inactive
6,CC#CCOc1ccc(C[C@H](NC(=O)CCC)C(=O)O)cc1,inactive

# System: Escherichia coli
# Experiment: Antibacterial activity against Escherichia coli at 80 ug/ml incubated for 24 hrs by resazurin dye based broth microdilution method
# Type: functional, organism-based
# Details: dose 80.0 µg/ml
row,Compound,Activity
1,CCCCCC(=O)N[C@@H](Cc1ccc(OCC#CCO)cc1)C(=O)O,inactive
2,CC#CCOc1ccc(C[C@H](NC(=O)CCCCC)C(=O)O)cc1,inactive
3,C/C(=C/COc1ccc(CC(=O)O)cc1)C(=O)O,inactive
4,CC#CCOc1ccc(C[C@H](NC(=O)CCCC)C(=O)O)cc1,inactive
5,CC#CCOc1ccc(C[C@H](NC(=O)CCCCC)C(=O)OC)cc1,inactive
6,CC#CCOc1ccc(C[C@H](NC(=O)CCC)C(=O)O)cc1,inactive

# System: Plasma
# Experiment: Antiplatelet activity in Sprague-Dawley rat platelet-rich plasma assessed as inhibition of ADP-induced platelet aggregation at 1 ug/ml preincubated for 5 mins followed by ADP addition and measured after 5 mins by light microscopic analysis
# Type: functional, cell-free
# Details: dose 1.0 µg/ml, time 10.0 min
row,Compound,Activity
1,CCCCCC(=O)N[C@@H](Cc1ccc(OCC#CCO)cc1)C(=O)O,inactive
2,CC#CCOc1ccc(C[C@H](NC(=O)CCCCC)C(=O)O)cc1,Active
3,C/C(=C/COc1ccc(CC(=O)O)cc1)C(=O)O,inactive
4,CC#CCOc1ccc(C[C@H](NC(=O)CCCC)C(=O)O)cc1,inactive
5,CC#CCOc1ccc(C[C@H](NC(=O)CCCCC)C(=O)OC)cc1,Active
6,CC#CCOc1ccc(C[C@H](NC(=O)CCC)C(=O)O)cc1,inactive

# System: A2780
# Experiment: Antiproliferative activity against human A2780 cells at 40 uM incubated for 72 hrs by CyQuant assay
# Type: cell-based
# Details: a2780, 72 h
row,Compound,Activity
1,CCCCCC(=O)N[C@@H](Cc1ccc(OCC#CCO)cc1)C(=O)O,Non-Toxic
2,CC#CCOc1ccc(C[C@H](NC(=O)CCCCC)C(=O)O)cc1,Non-Toxic
3,C/C(=C/COc1ccc(CC(=O)O)cc1)C(=O)O,Non-Toxic
4,CC#CCOc1ccc(C[C@H](NC(=O)CCCC)C(=O)O)cc1,Non-Toxic
5,CC#CCOc1ccc(C[C@H](NC(=O)CCCCC)C(=O)OC)cc1,Non-Toxic
6,CC#CCOc1ccc(C[C@H](NC(=O)CCC)C(=O)O)cc1,Non-Toxic

# System: Plasma
# Experiment: Antiplatelet activity in Sprague-Dawley rat platelet-rich plasma assessed as inhibition of CaCl2-induced platelet aggregation at 1 ug/ml preincubated for 5 mins followed by CaCl2 addition and measured after 5 mins by light microscopic analysis
# Type: functional, cell-free
# Details: dose 1.0 µg/ml, time 10.0 min
row,Compound,Activity
1,CCCCCC(=O)N[C@@H](Cc1ccc(OCC#CCO)cc1)C(=O)O,inactive
2,CC#CCOc1ccc(C[C@H](NC(=O)CCCCC)C(=O)O)cc1,Active
3,C/C(=C/COc1ccc(CC(=O)O)cc1)C(=O)O,inactive
4,CC#CCOc1ccc(C[C@H](NC(=O)CCCC)C(=O)O)cc1,inactive
5,CC#CCOc1ccc(C[C@H](NC(=O)CCCCC)C(=O)OC)cc1,Active
6,CC#CCOc1ccc(C[C@H](NC(=O)CCC)C(=O)O)cc1,inactive

# System: Pseudomonas aeruginosa
# Experiment: Antibacterial activity against Pseudomonas aeruginosa at 80 ug/ml incubated for 24 hrs by resazurin dye based broth microdilution method
# Type: functional, organism-based
# Details: dose 80.0 µg/ml
row,Compound,Activity
1,CCCCCC(=O)N[C@@H](Cc1ccc(OCC#CCO)cc1)C(=O)O,inactive
2,CC#CCOc1ccc(C[C@H](NC(=O)CCCCC)C(=O)O)cc1,inactive
3,C/C(=C/COc1ccc(CC(=O)O)cc1)C(=O)O,inactive
4,CC#CCOc1ccc(C[C@H](NC(=O)CCCC)C(=O)O)cc1,inactive
5,CC#CCOc1ccc(C[C@H](NC(=O)CCCCC)C(=O)OC)cc1,inactive
6,CC#CCOc1ccc(C[C@H](NC(=O)CCC)C(=O)O)cc1,inactive

# System: HEK293
# Experiment: Antiproliferative activity against human HEK293 cells at 40 uM by SRB assay
# Type: cell-based
# Details: hek293, 40 µM
row,Compound,Activity
1,CCCCCC(=O)N[C@@H](Cc1ccc(OCC#CCO)cc1)C(=O)O,Non-Toxic
2,CC#CCOc1ccc(C[C@H](NC(=O)CCCCC)C(=O)O)cc1,Non-Toxic
3,C/C(=C/COc1ccc(CC(=O)O)cc1)C(=O)O,Non-Toxic
4,CC#CCOc1ccc(C[C@H](NC(=O)CCCC)C(=O)O)cc1,Non-Toxic
5,CC#CCOc1ccc(C[C@H](NC(=O)CCCCC)C(=O)OC)cc1,Non-Toxic
6,CC#CCOc1ccc(C[C@H](NC(=O)CCC)C(=O)O)cc1,Non-Toxic

# System: Staphylococcus aureus
# Experiment: Antibacterial activity against Staphylococcus aureus at 80 ug/ml incubated for 24 hrs by resazurin dye based broth microdilution method
# Type: functional, organism-based
# Details: dose 80.0 µg/ml
row,Compound,Activity
1,CCCCCC(=O)N[C@@H](Cc1ccc(OCC#CCO)cc1)C(=O)O,inactive
2,CC#CCOc1ccc(C[C@H](NC(=O)CCCCC)C(=O)O)cc1,inactive
3,C/C(=C/COc1ccc(CC(=O)O)cc1)C(=O)O,inactive
4,CC#CCOc1ccc(C[C@H](NC(=O)CCCC)C(=O)O)cc1,inactive
5,CC#CCOc1ccc(C[C@H](NC(=O)CCCCC)C(=O)OC)cc1,inactive
6,CC#CCOc1ccc(C[C@H](NC(=O)CCC)C(=O)O)cc1,inactive
